In patent EP0391077A1, “O56-alkyl derivatives of aglycone and pseudoaglycones of teicoplanin” (GRUPPO LEPETIT S.p.A., priority 1989, dated 1990):
Counter-ions that a name gives are not always drawn.

Experiment: physchem
Assay type: physicochemical
Settings: methylcellosolve:water 4:1, pKMCS
Protocol: The potentiometric determinations reported in the examples are run in Methylcellosolve : water, 4:1 (v/v). An excess of 0.01 N HCl In this solvent mixture was added to the sample and the resulting solution was titrated with 0.01 N NaOH in the same solvent mixture. The pK value obtained under the conditions is reported below as pKMCS, wherein MCS stands for Methylcellosolve.

Row | pKa | SMILES
1 | 6 | COC(=O)C1NC(=O)C2NC(=O)C(NC(=O)C3NC(=O)C4NC(=O)C(Cc5ccc(c(Cl)c5)Oc5cc3cc(c5OC(CCO)C(=O)O)Oc3ccc(cc3Cl)C2O)NC(=O)C(N)c2ccc(O)c(c2)Oc2cc(O)cc4c2)c2ccc(O)c(c2)-c2c(O)cc(O)cc21 (centres unmarked) [Compound 3, O⁵⁶ -(1-carboxy-3-hydroxypropyl)deglucoteicoplanin methyl ester hydrochloride]
2 | 6.4 | COC(=O)C1NC(=O)C2NC(=O)C(NC(=O)C3NC(=O)C4NC(=O)C(Cc5ccc(c(Cl)c5)Oc5cc3cc(c5OCCN3CCCC3)Oc3ccc(cc3Cl)C2O)NC(=O)C(N)c2ccc(O)c(c2)Oc2cc(O)cc4c2)c2ccc(O)c(c2)-c2c(O)cc(O)cc21 (centres unmarked) [Compound 13, O⁵⁶-[2-(1-pyrrolidinyl)-ethyl]deglucoteicoplanin methyl ester dihydrochloride]
